Data on one substance can be found in paper PMC4869175, “Evidence that phytochrome functions as a protein kinase in plant light signalling” (Nature Communications, 2016).

Holding throughout (assay): Photoaffinity labelling with 8-azido-ATP (ATP-binding affinity assay)
What all share (conditions): 5 μM 8-azido-ATP; labelling of WT AsphyA with 5 μM assumed as 100%

The target in test [1] is T1, K411L AsphyA mutant (full-length) (Avena sativa, UniProt P06593, K411L).
T1 construct: After preparing purified full-length AsphyA mutants; made in house; host or cells: Pichia pastoris GS115
T1 sequence (P06593 whole entry K411L): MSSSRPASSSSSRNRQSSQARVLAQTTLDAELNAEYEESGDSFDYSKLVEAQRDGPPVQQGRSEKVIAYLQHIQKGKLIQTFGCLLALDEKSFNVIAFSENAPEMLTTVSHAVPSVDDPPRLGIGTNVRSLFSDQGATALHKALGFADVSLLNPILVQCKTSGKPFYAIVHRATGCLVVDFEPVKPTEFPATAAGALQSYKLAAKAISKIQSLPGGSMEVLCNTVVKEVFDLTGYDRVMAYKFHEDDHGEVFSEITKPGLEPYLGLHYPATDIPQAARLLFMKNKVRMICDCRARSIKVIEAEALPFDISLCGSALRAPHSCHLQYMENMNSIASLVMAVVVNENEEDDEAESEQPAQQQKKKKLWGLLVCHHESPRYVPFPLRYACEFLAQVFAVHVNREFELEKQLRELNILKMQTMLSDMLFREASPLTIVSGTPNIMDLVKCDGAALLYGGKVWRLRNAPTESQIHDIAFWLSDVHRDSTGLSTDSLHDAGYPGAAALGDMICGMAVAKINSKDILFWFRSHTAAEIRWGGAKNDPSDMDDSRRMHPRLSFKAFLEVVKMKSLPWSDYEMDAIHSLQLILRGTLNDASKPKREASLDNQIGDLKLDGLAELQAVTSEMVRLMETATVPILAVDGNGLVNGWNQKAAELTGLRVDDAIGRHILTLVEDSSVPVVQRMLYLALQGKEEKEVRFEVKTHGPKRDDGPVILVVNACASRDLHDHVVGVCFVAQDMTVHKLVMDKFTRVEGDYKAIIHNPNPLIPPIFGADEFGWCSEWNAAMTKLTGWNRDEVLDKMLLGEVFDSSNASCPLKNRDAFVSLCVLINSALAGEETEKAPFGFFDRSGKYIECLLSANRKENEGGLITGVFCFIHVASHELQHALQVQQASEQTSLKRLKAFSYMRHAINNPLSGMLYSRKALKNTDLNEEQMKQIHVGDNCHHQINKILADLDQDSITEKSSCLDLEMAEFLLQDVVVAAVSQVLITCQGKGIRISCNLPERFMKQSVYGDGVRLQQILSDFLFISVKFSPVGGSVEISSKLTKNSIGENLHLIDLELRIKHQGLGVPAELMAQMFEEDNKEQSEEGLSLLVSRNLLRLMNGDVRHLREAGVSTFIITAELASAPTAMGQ
How it is done: (§1) Figure 4 Phosphorylation analyses of AsphyA mutants with reduced kinase activity. (a) Kinase activity assays of the AsphyA mutants. In all, 1.0 μg of GST/strep-fused PIF3 (∼0.3 μM) was added as a substrate in reaction mixtures with 1.0 μg of either full-length WT or a mutant (K411L, T418D or D422R) AsphyA protein (∼0.2 μM). (b) Protein–protein interaction analysis between PIF3 and the AsphyA kinase mutants. GST was included as a negative control. (c) ATP-binding affinity assays of AsphyA kinase mutants using photoaffinity labelling with 8-azido-ATP. 1.0 μg of full-length AsphyA protein (∼80 nM) was labelled with the indicated concentrations of 8-azido-ATP. The percentages of 8-azido-ATP labeling were obtained where the labelling of WT AsphyA with 5 μM azido-ATP was assumed as 100%. Error bars represent s.d. from three independent measurements.
(§2) To investigate ATP-binding to AsphyA proteins, photoaffinity labelling experiments were carried out using 8-N3-ATP-biotin-long chain-hydrazone (8-azido-ATP), which were purchased from Affinity Labeling Technologies, Inc. Purified phytochrome proteins (1.0 μg) were pre-incubated for 30 min on ice in 50 μl of photoaffinity labelling buffer (20 mM Tris-HCl, pH 7.0, 2 mM EDTA, 2 mM MgCl2 and 150 μM ATP), and then 8-azido-ATP was applied with indicated concentrations. […]
(§3) Supplementary Figure 15. […] Full-length wild-type and mutant AsphyA proteins were labeled with the indicated concentrations of 8-azido-ATP, and the azido-ATP-labeled proteins were detected with avidin-HRP (upper panels).
(§4) Amounts of AsphyA proteins (ca. 1.0 µg) used in these reactions are shown as loading controls in lower panels, which were analyzed using western blots with oat22 antibody.
(§5) Phosphorylation analysis of the D422R mutant of A610 (DR/A610). […] Wild-type (A610) and DR/A610 mutant proteins were labeled with the indicated concentrations of 8-azido-ATP, and the 8-azido-ATP labeled proteins were detected with avidin-HRP (upper panel).

For test [2], the target named is T2, D422R AsphyA mutant (full-length) (Avena sativa, UniProt P06593, D422R).
T2 construct: After preparing purified full-length AsphyA mutants; made in house; host or cells: Pichia pastoris GS115
T2 sequence (P06593 whole entry D422R): as the sequence (P06593 whole entry K411L) above, with L411K, D422R counted along it
How it is done:
as §1, §2, §3, §4, §5

The target in test [3] is T3, T418D AsphyA mutant (full-length) (Avena sativa, UniProt P06593, T418D).
T3 construct: After preparing purified full-length AsphyA mutants; made in house; host or cells: Pichia pastoris GS115
T3 sequence (P06593 whole entry T418D): as the sequence (P06593 whole entry K411L) above, with L411K, T418D counted along it
How it is done: as §1, §2, §3, §4, §5

For the substance “8-N3-ATP-biotin-long chain-hydrazone [8-azido-ATP]”, the figures for the “8-azido-ATP labelling, % of the WT AsphyA” value in test [1], in test [2] and in test [3] were roughly 30%, roughly 5% and roughly 17%, respectively.
